Patent US20220323427A1, “SOMATOSTATIN RECEPTOR TYPE 5 AGONIST FOR THE TREATMENT OF HYPERINSULINISM” (Crinetics Pharmaceuticals, Inc., priority 2021, published 2022)

What was measured:
human pancreatic islets = assay: Glucagon secretion in perifused human islets; format: cell-based; details: islets from a healthy donor; G3+Arg
Procedure: For glucagon secretion, glucose (Boston BioProducts #BM-675) solutions, G3, G16.7 and G3 plus 20 mM arginine (Sigma #A8094; G3+Arg) were prepared in PB [24 mM NaHCO3 (Fisher Scientific #S233-500), 120 mM NaCl (Spectrum Chemical #S0155), 4.8 mM KCl (Fisher Scientific #P217-500), 2.5 mM CaCl2 (Fisher Scientific #C614-500), 1.2 mM MgCl2 (Sigma #M8266), 10 mM HEPES (Gibco #15630-080) and 0.1% BSA (EMD Millipore #12-675-100GM)]. Various concentrations of Compound 1 and diazoxide (Sigma #D9035) were prepared in G16.7 or in G3+Arg. On the day of the assay, ten perifusion chambers (Biorep #Peri-chamber) were loaded with a bead suspension (Biorep #Peri-beads-20) followed by 300 IEQ and another layer of bead suspension. Chambers were filled with PB, placed in the perifusion equipment and equilibrated with G3 for 74 min (flow rate=230 μL/min) followed by the perifusion steps for glucagon secretion shown in Table 3. […] Glucagon concentration was quantified using the commercially-available Mercodia Glucagon ELISA (Mercodia #10-1271-01) kit. undiluted perfusate samples were added to the supplied pre-coated assay plates. […] The optical density of each well was determined at 450 nm in a Tecan M1000Pro (Tecan, Switzerland) multiplate reader. Glucagon concentrations were calculated by regression to the standard curve using GraphPad Prism (GraphPad, San Diego, Calif.).

[1] = cited from earlier work
[2] = fasting conditions; cited from earlier work
[3] = system: glyburide-induced hyperinsulinemic hypoglycemia; assay: Glyburide-induced hyperinsulinemic hypoglycemia model in rats; format: in vivo, Sprague Dawley rats; details: 30 mg/kg oral, adult male rats; mean baseline 168 mg/dL
Procedure: Sulfonylurea drugs, such as glyburide, inhibit KATP channels and can be used in rat preclinical models to mimic the disease state of congenital HI patients with KATP channel mutations.
This model of glyburide-induced hyperinsulinemic hypoglycemia was used to assess the pharmacodynamic effects of Compound 1 after a single administration in male and female adult rats and male neonatal rats.
Glyburide was administered to raise insulin levels and induce hypoglycemia in adult male Sprague Dawley rats.
Two hours following glyburide administration, Compound 1 was given by oral gavage and blood glucose was monitored over 5 hours.

| SMILES | Inhibition of arginine-stimulated glucagon secretion (human pancreatic islets) | Patients treated and considered responsive who continue to have hypoglycemia ([1]; 2020 Congenital HI International Global Registry report) [%] | Patients who experienced pulmonary hypertension ([1]; one study) [%] | Side effect: fluid retention ([1]; patients) | Side effect: gastrointestinal side effects including feeding aversion ([1]; patients) | Side effect: severe hypertrichosis ([1]; patients) | half-life [2] | Blood glucose level after glyburide [3] [mg/dL] |
| --- | --- | --- | --- | --- | --- | --- | --- | --- |
| CC1=NS(=O)(=O)c2cc(Cl)ccc2N1 [diazoxide] | up to 57% | 30 | 4.8 | approximately 30% | approximately 12% | approximately 52% |  |  |
| COc1ccc(Cl)cc1C(=O)NCCc1ccc(S(=O)(=O)NC(=O)NC2CCCCC2)cc1 [glyburide, reference compound] |  |  |  |  |  |  | approximately 10 hours | 70 |
